Read-outs that look alike come from different tables or passages of the source.
Tests used:
Format in all cases: cell-based, human
[1] = system: IL-2-induced JAK1/JAK3 signal pathway; experiment: IL-2-induced proliferation of KHYG-1 cells (JAK1/JAK3 signal); conditions: KHYG-1 cell proliferation, IL-2 10 ng/mL, 72 hours, read-out: Inhibition activity IC50 on IL-2-induced JAK1/JAK3 signal pathway
How it was run: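 Controls were wells lacking both compound and cytokine (0%) and compound-free IL-2 wells (100%). C50 was calculated from inhibition rates across doses.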

[2] = system: IL-10-induced JAK1/TYK2 signal pathway; experiment: IL-10-induced JAK1/TYK2 signal pathway STAT3-Luc reporter gene assay in U2OS cells; conditions: U2OS cells, STAT3-Luc reporter, IL-10 10 ng/mL, read-out: Half inhibition dose (IC50) on IL-10-induced JAK1/TYK2 signal pathway
How it was run: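 Luciferase read-out (560 nm) corrected by GFP signal (Ex485/Em520) gives IL-10 pathway activity, and IC50 is derived from inhibition rates. Cells were U2OS transfected with IL-10R1 plus STAT3-Luc reporter, pretreated 6 h with 0.1–300 nM compound, then stimulated 24 h with IL-10 at 10 ng/mL.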

[3] = system: EPO-induced JAK2 signal pathway; experiment: EPO-induced proliferation of UT-7 cells (JAK2 signal); conditions: UT-7 cell proliferation, EPO 10 ng/mL, 72 hours, read-out: Inhibition activity IC50 on EPO-induced JAK2 signal pathway
How it was run: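 […] was derived from inhibition rates across doses, scaled between wells lacking compound and cytokine (0) and EPO without compound (100), using alamarBlue fluorescence at Ex530/Em590. Compound (final 0-10000 nM) and 10 ng/mL EPO were given to UT-7 cells at 15000 per well for 72 h at 37° C.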

Row | Structure (SMILES) | IC50 ([2]; Homo sapiens, U2OS) [µM] | IC50 [2] [µM] | IC50 ([1]; Homo sapiens) [µM] | IC50 ([3]; Homo sapiens, UT7) [µM] | IC50 [1] [µM] | IC50 [3] [µM] | IC50 ([2]; Homo sapiens) [µM]
1 | CCONC(=O)c1cnc(Nc2cc(C)nc(C)n2)cc1Nc1ccc(C2CC2)cc1N(C)S(=O)(=O)C1CC1 [Example 189] | 0.000825 | – | > 10 | > 10 | – | – | –
2 | CCONC(=O)c1cnc(Nc2ccncn2)cc1Nc1ccc(C2CC2)cc1N(C)S(=O)(=O)C1CC1 [Example 190, 4-((4-cyclopropyl-2-(N-methylcyclopropylsulfonamido)phenyl)amino)-N-ethoxy-6-(pyrimidin-4-ylamino)nicotinamide] | 0.00273 | – | > 10 | > 10 | – | – | –
3 | CCONC(=O)c1cnc(Nc2cc(C)nc(C)n2)cc1Nc1ccc(-c2ccnn2C)cc1OC [Example 207] | 0.00108 | – | > 10 | > 10 | – | – | –
4 | CCONC(=O)c1cnc(NC(=O)C2CC2)cc1Nc1cccc(-c2ncc(F)cn2)c1OC [Example 209, 6-(cyclopropylcarboxamido)-N-ethoxy-4-((3-(5-fluoropyrimidin-2-yl)-2-methoxyphenyl)amino)nicotinamide] | 0.00178 | – | > 10 | > 10 | – | – | –
5 | CCONC(=O)c1cnc(NC(=O)C2CC2)cc1Nc1cc(F)cc(-c2ncc(F)cn2)c1OC [Example 210, 6-(cyclopropylcarboxamido)-N-ethoxy-4-((5-fluoro-3-(5-fluoropyrimidin-2-yl)-2-methoxyphenyl)amino)nicotinamide] | 0.000958 | – | > 10 | > 10 | – | – | –
6 | CCONC(=O)c1cnc(Nc2cccc(C)n2)cc1Nc1ccc(C2CC2)cc1N(C)S(C)(=O)=O [Example 217, 4-((4-cyclopropyl-2-(N-methylmethanesulfonamido)phenyl)amino)-N-ethoxy-6-((6-methylpyridin-2-yl)amino)nicotinamide] | – | 0.00105 | – | – | > 10 | > 10 | –
7 | CCONC(=O)c1cnc(Nc2cc(C)nc(C)n2)cc1Nc1cccc(-c2ncc(Cl)cn2)c1OC [Example 218, 4-((3-(5-chloropyrimidin-2-yl)-2-methoxyphenyl)amino)-6-((2,6-dimethylpyrimidin-4-yl)amino)-N-ethoxy nicotinamide] | – | – | > 10 | > 10 | – | – | 0.000171
8 | CCONC(=O)c1cnc(Nc2cccc(C(F)(F)F)n2)cc1Nc1ccc(C2CC2)cc1N(C)S(C)(=O)=O [Example 220, 4-((4-cyclopropyl-2-(N-methylmethanesulfonamido)phenyl)amino)-N-ethoxy-6-((6-(trifluoromethyl)pyridin-2-yl)amino)nicotinamide] | 0.00132 | – | > 10 | > 10 | – | – | –
9 | CCONC(=O)c1cnc(Nc2cccc(C)n2)cc1Nc1ccc(-c2ccnn2C)cc1OC [Example 222, N-ethoxy-4-((2-methoxy-4-(1-methyl-1H-pyrazol-5-yl)phenyl)amino)-6-((6-methylpyridin-2-yl)amino)nicotinamide] | 0.00109 | – | > 10 | > 10 | – | – | –
10 | CCONC(=O)c1cnc(Nc2cccc(C)n2)cc1Nc1ccc(C2CC2)cc1N(C)S(C)(=O)=O [Example 224, 4-((4-cyclopropyl-2-(N-methylmethanesulfonamido)phenyl)amino)-N-ethoxy-6-((6-methylpyridin-2-yl)amino)nicotinamide] | – | 0.000177 | – | – | > 10 | > 10 | –
11 | CCONC(=O)c1cnc(Nc2ccncn2)cc1Nc1cc(F)c(C(C)C)cc1N(C)S(C)(=O)=O [Example 230, N-ethoxy-4-((5-fluoro-4-isopropyl-2-(N-methylmethanesulfonamido)phenyl)amino)-6-(pyrimidin-4-ylamino)nicotinamide] | 0.00085 | – | > 10 | > 10 | – | – | –

The remaining compounds from weak to strong by IC50 ([2]; Homo sapiens, U2OS), led by results:

Row | IC50 ([2]; Homo sapiens, U2OS) [µM] | IC50 [2] [µM] | Structure (SMILES) | IC50 ([1]; Homo sapiens) [µM] | IC50 ([3]; Homo sapiens, UT7) [µM] | IC50 [1] [µM] | IC50 [3] [µM] | IC50 ([2]; Homo sapiens) [µM]
12 | 0.000731 | – | CCONC(=O)c1cnc(Nc2cc(C)nc(C)n2)cc1Nc1ccc(C)c(F)c1N(C)S(C)(=O)=O [Example 197] | > 10 | > 10 | – | – | –
13 | 0.000722 | – | CCONC(=O)c1cnc(Nc2cnc(F)c(C)c2)cc1Nc1ccc(C2CC2)cc1N(C)S(C)(=O)=O [Example 235, 4-((4-cyclopropyl-2-(N-methylmethanesulfonamido)phenyl)amino)-N-ethoxy-6-((6-fluoro-5-methylpyridin-3-yl)amino)nicotinamide] | > 10 | > 10 | – | – | –
14 | 0.000653 | – | CCONC(=O)c1cnc(Nc2cc(C)nc(C)n2)cc1Nc1cc(F)c(C)cc1N(C)S(C)(=O)=O [Example 191, 6-((2,6-dimethylpyrimidin-4-yl)amino)-N-ethoxy-4-((5-fluoro-4-methyl-2-(N-methylmethanesulfonamido)phenyl)amino)nicotinamide] | > 10 | > 10 | – | – | –
15 | 0.000587 | – | CCONC(=O)c1cnc(Nc2cncc(F)c2)cc1Nc1ccc(C2CC2)cc1N(C)S(C)(=O)=O [Example 236, 4-((4-cyclopropyl-2-(N-methylmethanesulfonamido)phenyl)amino)-N-ethoxy-6-((5-fluoropyridin-3-yl)amino)nicotinamide] | > 10 | > 10 | – | – | –
16 | 0.000538 | – | CCONC(=O)c1cnc(NC(=O)C2CC2)cc1Nc1cc(F)cc(-c2ncc(C)cn2)c1OC [Example 226, 6-(cyclopropylcarboxamido)-N-ethoxy-4-((5-fluoro-2-(methoxy)-3-(5-methylpyrimidin-2-yl)phenyl)amino)nicotinamide] | > 10 | > 10 | – | – | –
17 | 0.000395 | – | CCONC(=O)c1cnc(Nc2ccc(F)nc2)cc1Nc1ccc(C2CC2)cc1N(C)S(C)(=O)=O [Example 237, 4-((4-cyclopropyl-2-(N-methylmethanesulfonamido)phenyl)amino)-N-ethoxy-6-((6-fluoropyridin-3-yl)amino)nicotinamide] | > 10 | > 10 | – | – | –
18 | 0.000383 | – | CCONC(=O)c1cnc(Nc2cc(C)nc(C)n2)cc1Nc1ccc(C)cc1N(C)S(=O)(=O)CC [Example 203, 6-((2,6-dimethylpyrimidin-4-yl)amino)-N-ethoxy-4-((4-methyl-2-(N-methylethylsulfonamido)phenyl)amino)nicotinamide] | > 10 | > 10 | – | – | –
19 | 0.000368 | – | CCONC(=O)c1cnc(Nc2ncc(F)cc2F)cc1Nc1cc(F)cc(-c2ncc(F)cn2)c1OC [Example 234, 6-((3,5-difluoropyridin-2-yl)amino)-N-ethoxy-4-((5-fluoro-3-(5-fluoropyrimidin-2-yl)-2-methoxyphenyl)amino)nicotinamide] | > 10 | > 10 | – | – | –
20 | 0.000289 | – | CCONC(=O)c1cnc(NC(=O)C2CC2)cc1Nc1cccc(-c2ncc(C)cn2)c1OC [Example 239, 6-(cyclopropylcarboxamido)-N-ethoxy-4-((2-methoxy-3-(5-methylpyrimidin-2-yl)phenyl)amino)nicotinamide] | > 10 | > 10 | – | – | –
21 | 0.000258 | – | CCONC(=O)c1cnc(Nc2ccnc(C)n2)cc1Nc1cccc(-c2ncc(C)cn2)c1OC [Example 240, N-ethoxy-4-((2-methoxy-3-(5-methylpyrimidin-2-yl)phenyl)amino)-6-((2-methylpyrimidin-4-yl)amino)nicotinamide] | > 10 | > 10 | – | – | –
22 | 0.000172 | – | CCONC(=O)c1cnc(Nc2ccc(F)nc2C)cc1Nc1ccc(C2CC2)cc1N(C)S(C)(=O)=O [Example 223, 4-((4-cyclopropyl-2-(N-methylmethanesulfonamido)phenyl)amino)-N-ethoxy-6-((6-fluoro-2-methylpyridin-3-yl)amino)nicotinamide] | > 10 | > 10 | – | – | –
